From ChEMBL document CHEMBL5729675, “Sulfonamide compound or salt thereof” (2023)

Molecular target: Ribonucleotide reductase (Homo sapiens, UniProt P23921+Q7LG56)
Assay: Human RNR Inhibition Effect: The inhibitory activity against the ribonucleotide reduction reaction (hereinafter referred to as RNR reaction) of the test compound was determined by measuring the formation of deoxycytidine diphosphate (hereinafter referred to as dCDP) from cytidine diphosphate (hereinafter referred to as CDP) by the following method.Human M1 subunit and human M2 subunit (mutant …

Ribonucleotide reductase, sequence (P23921 whole entry, looked up): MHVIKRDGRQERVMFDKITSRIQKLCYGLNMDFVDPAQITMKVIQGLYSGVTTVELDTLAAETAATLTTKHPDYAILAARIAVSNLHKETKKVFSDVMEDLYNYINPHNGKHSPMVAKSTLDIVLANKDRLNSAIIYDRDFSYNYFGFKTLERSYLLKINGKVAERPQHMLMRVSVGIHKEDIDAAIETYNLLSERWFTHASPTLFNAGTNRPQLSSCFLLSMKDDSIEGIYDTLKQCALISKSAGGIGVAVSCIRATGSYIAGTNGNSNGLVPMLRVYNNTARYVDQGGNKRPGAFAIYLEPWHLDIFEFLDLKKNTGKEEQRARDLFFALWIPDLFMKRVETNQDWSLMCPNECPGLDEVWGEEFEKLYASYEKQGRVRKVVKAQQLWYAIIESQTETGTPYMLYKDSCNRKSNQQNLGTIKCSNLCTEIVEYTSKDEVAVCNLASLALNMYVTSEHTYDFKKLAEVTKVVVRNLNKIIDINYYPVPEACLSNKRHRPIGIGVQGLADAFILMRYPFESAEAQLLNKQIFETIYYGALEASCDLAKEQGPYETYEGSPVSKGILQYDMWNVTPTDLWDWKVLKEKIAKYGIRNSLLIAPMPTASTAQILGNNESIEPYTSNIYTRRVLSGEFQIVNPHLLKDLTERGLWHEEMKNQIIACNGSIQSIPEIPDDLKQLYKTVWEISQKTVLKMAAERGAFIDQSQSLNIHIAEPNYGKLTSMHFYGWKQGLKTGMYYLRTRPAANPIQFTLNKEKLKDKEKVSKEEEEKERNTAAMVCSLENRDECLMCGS
Ribonucleotide reductase, sequence (Q7LG56 whole entry, looked up): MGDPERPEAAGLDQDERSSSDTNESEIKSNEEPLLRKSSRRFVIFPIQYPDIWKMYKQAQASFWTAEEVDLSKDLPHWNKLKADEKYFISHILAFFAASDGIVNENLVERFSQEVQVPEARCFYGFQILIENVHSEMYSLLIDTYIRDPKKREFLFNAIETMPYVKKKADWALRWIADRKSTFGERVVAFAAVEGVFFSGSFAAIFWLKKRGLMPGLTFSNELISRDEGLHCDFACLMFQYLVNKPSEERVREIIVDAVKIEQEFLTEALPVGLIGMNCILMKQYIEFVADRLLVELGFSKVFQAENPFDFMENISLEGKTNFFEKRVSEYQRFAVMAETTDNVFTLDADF

| SMILES | IC50 |
| --- | --- |
| Cc1ccc(F)c([C@@H](C)[C@H](NS(=O)(=O)c2ccc(Cl)cc2OCC(F)F)c2n[nH]c(=O)o2)c1C | 440 nM |
| Cc1ccc(F)c([C@@H](C)[C@H](NS(=O)(=O)c2cccc3c2OCCO3)c2n[nH]c(=O)o2)c1C | 330 nM |
| Cc1ccc(F)c([C@@H](C)[C@H](NS(=O)(=O)c2ccc3c(c2)C(=O)CCC3)c2n[nH]c(=O)o2)c1C | 350 nM |
| Cc1ccc(F)c([C@@H](C)[C@H](NS(=O)(=O)c2ccc3[nH]c(=O)[nH]c3c2)c2n[nH]c(=O)o2)c1C | 830 nM |
| Cc1ccc(S(=O)(=O)N[C@H](c2n[nH]c(=O)o2)[C@H](C)c2c(F)ccc(C)c2C)cc1 | 410 nM |
| Cc1ccc(F)c([C@@H](C)[C@H](NS(=O)(=O)c2ccc3c(c2)CC(=O)N3)c2n[nH]c(=O)o2)c1C | 740 nM |
| Cc1ccc(F)c([C@@H](C)[C@H](NS(=O)(=O)c2ccc3[nH]c(=O)c(=O)[nH]c3c2)c2n[nH]c(=O)o2)c1C | 820 nM |
| COC(=O)c1cc(Br)cnc1S(=O)(=O)N[C@H](c1n[nH]c(=O)o1)[C@H](C)c1c(F)ccc(C)c1C | 450 nM |
| Cc1ccc(F)c([C@@H](C)[C@H](NS(=O)(=O)c2ccccc2C#N)c2n[nH]c(=O)o2)c1C | 640 nM |
| Cc1ccc(F)c([C@@H](C)[C@H](NS(=O)(=O)c2ccc(Cl)c(-c3nnn[nH]3)c2)c2n[nH]c(=O)o2)c1C | 280 nM |
| COC(=O)c1cc(Cl)cnc1S(=O)(=O)N[C@H](c1n[nH]c(=O)o1)[C@H](C)c1c(F)ccc(C)c1C | 340 nM |
| Cc1ccc(F)c([C@@H](C)[C@H](NS(=O)(=O)c2ccc(Cl)c(C(=O)N3C4CCC3COC4)n2)c2n[nH]c(=O)o2)c1C | 70 nM |
| Cc1ccc(F)c([C@@H](C)[C@H](NS(=O)(=O)c2ccc(Cl)c(S(N)(=O)=O)c2)c2n[nH]c(=O)o2)c1C | 810 nM |
| COc1cc(Cl)ccc1S(=O)(=O)N[C@H](c1n[nH]c(=O)o1)[C@H](C)c1c(F)ccc(C#N)c1C | 840 nM |
| CC(=O)c1cc(Cl)ccc1S(=O)(=O)N[C@H](c1n[nH]c(=O)o1)[C@H](C)c1c(F)ccc(C)c1C | 270 nM |
| Cc1ccc(F)c([C@@H](C)[C@H](NS(=O)(=O)c2cccc3[nH]ccc23)c2n[nH]c(=O)o2)c1C | 710 nM |
| COc1c(S(=O)(=O)N[C@H](c2n[nH]c(=O)o2)[C@H](C)c2c(F)ccc(C)c2C)ncc(Cl)c1C(C)OC(C)=O (stereo partly drawn) | 430 nM |
| Cc1ccc(F)c([C@@H](C)[C@H](NS(=O)(=O)c2c(F)cccc2F)c2n[nH]c(=O)o2)c1C | 960 nM |
| Cc1ccc(F)c([C@@H](C)[C@H](NS(=O)(=O)c2c(F)cc(Cl)cc2F)c2n[nH]c(=O)o2)c1C | 270 nM |
| Cc1ccc(F)c([C@@H](C)[C@H](NS(=O)(=O)c2cccc3c2OCCN3C(=O)C2CC2)c2n[nH]c(=O)o2)c1C | 290 nM |
| Cc1ccc(F)c([C@@H](C)[C@H](NS(=O)(=O)c2ccc(Cl)s2)c2n[nH]c(=O)o2)c1C | 450 nM |
| Cc1ccc(S(=O)(=O)N[C@H](c2n[nH]c(=O)o2)[C@H](C)c2c(F)ccc(C)c2C)cc1S(=O)(=O)N1CCCCC1 | 470 nM |
| COc1cc(Br)ccc1S(=O)(=O)N[C@H](c1n[nH]c(=O)o1)[C@H](C)c1cccc2c1CCC2 | 590 nM |
| CC(=O)OC1(C)CCOc2c(S(=O)(=O)N[C@H](c3n[nH]c(=O)o3)[C@H](C)c3c(F)ccc(Cl)c3C)ccc(Cl)c21 (stereo partly drawn) | 300 nM |
| Cc1ccc(F)c([C@@H](C)[C@H](NS(=O)(=O)c2ccc3c(c2)C(=O)CCO3)c2n[nH]c(=O)o2)c1C | 280 nM |
| COc1c(S(=O)(=O)N[C@H](c2n[nH]c(=O)o2)[C@H](C)c2c(F)ccc(C)c2C)ccc(Cl)c1C(C)(C)OC(C)=O | 430 nM |
| CC(=O)OC1(C(F)(F)F)CCOc2c1cccc2S(=O)(=O)N[C@H](c1n[nH]c(=O)o1)[C@H](C)c1c(F)ccc(C)c1C (stereo partly drawn) | 270 nM |
| COC(=O)c1cc(Cl)ccc1S(=O)(=O)N[C@H](c1n[nH]c(=O)o1)[C@H](C)c1c(F)ccc(C)c1C | 410 nM |
| Cc1ccc(F)c([C@@H](C)[C@H](NS(=O)(=O)c2ccc(Cl)cc2OC(F)F)c2n[nH]c(=O)o2)c1C | 260 nM |

Further lines, results first:

| IC50 | SMILES |
| --- | --- |
| 130 nM | Cc1ccc(F)c([C@@H](C)[C@H](NS(=O)(=O)c2ccc(Cl)c(C(=O)N3CCC4(COC4)C3)n2)c2n[nH]c(=O)o2)c1C |
| 60 nM | Cc1ccc(F)c([C@@H](C)[C@H](NS(=O)(=O)c2ccc(Cl)c(C(=O)N3CCCC3)n2)c2n[nH]c(=O)o2)c1C |
| 160 nM | Cc1ccc(F)c([C@@H](C)[C@H](NS(=O)(=O)c2ccc(F)c3c2OCCC3=O)c2n[nH]c(=O)o2)c1C |
| 80 nM | CC(=O)OC1(C)CCOc2c(S(=O)(=O)N[C@H](c3n[nH]c(=O)o3)[C@H](C)c3c(F)ccc(Br)c3C)ccc(Cl)c21 (stereo partly drawn) |
| 110 nM | Cc1ccc(F)c([C@@H](C)[C@H](NS(=O)(=O)c2ccc(Cl)c3cccnc23)c2n[nH]c(=O)o2)c1C |
| 60 nM | Cc1ccc(F)c([C@@H](C)[C@H](NS(=O)(=O)c2ccc(Cl)c(C(=O)N3CCOCC3)n2)c2n[nH]c(=O)o2)c1C |
| 130 nM | Cc1ccc(F)c([C@@H](C)[C@H](NS(=O)(=O)c2ccc3c(c2)OCCO3)c2n[nH]c(=O)o2)c1C |
| 210 nM | CC(=O)OC(C)c1nc(S(=O)(=O)N[C@H](c2n[nH]c(=O)o2)[C@H](C)c2cccc3c2CCC3)ccc1Cl (stereo partly drawn) |
| 90 nM | Cc1c(Br)ccc(F)c1[C@@H](C)[C@H](NS(=O)(=O)c1ccc(Cl)c2c1OCCC2=O)c1n[nH]c(=O)o1 |
| 60 nM | COC(=O)c1nc(S(=O)(=O)N[C@H](c2n[nH]c(=O)o2)[C@H](C)c2c(F)ccc(C)c2C)ccc1Cl |
| 130 nM | Cc1ccc(F)c([C@@H](C)[C@H](NS(=O)(=O)c2ccc(Cl)c3c2OCC(=O)N3CC(F)F)c2n[nH]c(=O)o2)c1C |
| 100 nM | CC(=O)NC1CCOc2c(S(=O)(=O)N[C@H](c3n[nH]c(=O)o3)[C@H](C)c3c(F)ccc(C)c3C)ccc(Cl)c21 (stereo partly drawn) |
| 170 nM | COC(=O)c1c(F)ccc(S(=O)(=O)N[C@H](c2n[nH]c(=O)o2)[C@H](C)c2c(F)ccc(C)c2C)c1F |
| 240 nM | Cc1ccc(F)c([C@@H](C)[C@H](NS(=O)(=O)c2ccc(Cl)c3c2C(=O)CCC3)c2n[nH]c(=O)o2)c1C |
| 30 nM | Cc1ccc(F)c([C@@H](C)[C@H](NS(=O)(=O)c2ccc(Cl)c(C(=O)N3CC4CCC(C3)O4)n2)c2n[nH]c(=O)o2)c1C |
| 160 nM | Cc1ccc(F)c([C@@H](C)[C@H](NS(=O)(=O)c2ccc(Cl)c(C#N)n2)c2n[nH]c(=O)o2)c1C |
| 100 nM | COc1nc(Cl)ccc1S(=O)(=O)N[C@H](c1n[nH]c(=O)o1)[C@H](C)c1c(F)ccc(C)c1C |
| 150 nM | COc1cc(Cl)cnc1S(=O)(=O)N[C@H](c1n[nH]c(=O)o1)[C@H](C)c1c(F)ccc(C)c1C |
| 80 nM | Cc1ccc(F)c([C@@H](C)[C@H](NS(=O)(=O)c2ccc(Cl)c(C(=O)N3CCC4(CC3)COC4)n2)c2n[nH]c(=O)o2)c1C |
| 110 nM | CC(=O)OC1(C(F)(F)F)CCOc2c(S(=O)(=O)N[C@H](c3n[nH]c(=O)o3)[C@H](C)c3c(F)ccc(C)c3C)ccc(Cl)c21 (stereo partly drawn) |
| 170 nM | COc1c(S(=O)(=O)N[C@H](c2n[nH]c(=O)o2)[C@H](C)c2c(F)ccc(C)c2C)ccc(Cl)c1C(C)OC(C)=O (stereo partly drawn) |
| 140 nM | Cc1ccc(F)c([C@@H](C)[C@H](NS(=O)(=O)c2ccc(Cl)c3c2OCCN3CC(F)F)c2n[nH]c(=O)o2)c1C |
| 180 nM | Cc1ccc(F)c([C@@H](C)[C@H](NS(=O)(=O)c2ccc(Cl)c(C(=O)N3CCC4(CCC4)C3)n2)c2n[nH]c(=O)o2)c1C |
| 190 nM | Cc1ccc(F)c([C@@H](C)[C@H](NS(=O)(=O)c2ccc(F)c(S(C)(=O)=O)c2)c2n[nH]c(=O)o2)c1C |
